# Experimental data reported in patent US20120029187A1, “HALOALKYLSULFONANILIDE DERIVATIVE” (Nissan Chemical Industries, Ltd., priority 2009, published 2012).
# Assays:
# Type in all cases: in vivo
# common ragweed [1] = assay: Test Example 3: herbicidal effects in soil treatment; details: dose 3.2 g/a
# Method in brief: (§1)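 Seeds were sown in sterilized diluvial soil and covered with about 1.5 cm of soil. Compounds, formulated as emulsifiable concentrates and diluted with water, were sprayed evenly over the soil surface at set doses in g/a. Herbicidal effect was scored on a rating scale three weeks later.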
# redroot pigweed [2] = assay: as above; details: dose 3.2 g/a
# Method in brief: as §1
# water foxtail [3] = assay: as above; details: dose 3.2 g/a
# Method in brief: as §1
# velvetleaf [4] = assay: as above; details: dose 3.2 g/a
# Method in brief: as §1
# common lambsquater [5] = assay: as above; details: dose 3.2 g/a
# Method in brief: as §1
# large crabgrass [6] = assay: as above; details: dose 3.2 g/a
# Method in brief: as §1
# Italian ryegrass [7] = assay: as above; details: dose 3.2 g/a
# Method in brief: as §1
# posumbu knotweed [8] = assay: as above; details: dose 3.2 g/a
# Method in brief: as §1
# giant foxtail [9] = assay: as above; details: dose 3.2 g/a
# Method in brief: as §1
# common chickweed [10] = assay: as above; details: dose 3.2 g/a
# Method in brief: as §1
# barnyardgrass [11] = assay: as above; details: dose 3.2 g/a
# Method in brief: as §1
# transplanted rice = assay: Test Example 1: preemergence treatment under submerged conditions, effect on crop; details: dose 2.52 g/a
# Method in brief: (§2)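 Score 0–5 by mortality (5: ≥90%; 0: <5%), read 3 weeks post-application. Paddy-type cups: alluvial soil under 4 cm water, weeds seeded plus transplanted 2.5-leaf rice; diluted EC dosed onto water surface same day as sowing, g/a basis; greenhouse 25 to 30° C.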
# beadstraw = assay: Test Example 4: herbicidal effect in foliage treatment; details: dose 3.2 g/a
# Method in brief: (§3)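 A uniform foliar spray of emulsifiable concentrate, diluted with water to give the stated g/a dose, was applied to plants raised for 14 days from seed in sterilized diluvial soil at 25 to 30° C. Herbicidal effects were scored three weeks later.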
# common ragweed [12] = assay: as above; details: dose 3.2 g/a
# Method in brief: as §3
# redroot pigweed [13] = assay: as above; details: dose 3.2 g/a
# Method in brief: as §3
# water foxtail [14] = assay: as above; details: dose 3.2 g/a
# Method in brief: as §3
# velvetleaf [15] = assay: as above; details: dose 3.2 g/a
# Method in brief: as §3
# common lambsquater [16] = assay: as above; details: dose 3.2 g/a
# Method in brief: as §3
# large crabgrass [17] = assay: as above; details: dose 3.2 g/a
# Method in brief: as §3
# Italian ryegrass [18] = assay: as above; details: dose 3.2 g/a
# Method in brief: as §3
# posumbu knotweed [19] = assay: as above; details: dose 3.2 g/a
# Method in brief: as §3
# giant foxtail [20] = assay: as above; details: dose 3.2 g/a
# Method in brief: as §3
# common chickweed [21] = assay: as above; details: dose 3.2 g/a
# Method in brief: as §3
# barnyardgrass [22] = assay: as above; details: dose 3.2 g/a
# Method in brief: as §3
# ducksalad [23] = assay: Test Example 1: herbicidal effects in preemergence treatment under submerged conditions; details: dose 2.52 g/a
# Method in brief: as §2
# bulrush [24] = assay: as above; details: dose 2.52 g/a
# Method in brief: as §2
# barnyardgrass [25] = assay: as above; details: dose 2.52 g/a
# Method in brief: as §2
# ducksalad [26] = assay: Test Example 2: herbicidal effects during the vegetation period under submerged conditions; details: treatment during the vegetation period under submerged conditions; dose 2.52 g/a
# Method in brief: (§4)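 Barnyardgrass, bulrush and ducksalad were co-sown in alluvial soil flooded to 4 cm and grown in a greenhouse at 25 to 30° C. At the 1- or 2-leaf stage, water-diluted emulsifiable concentrates went onto the water surface at set doses (g/a). Herbicidal effect was scored three weeks later on a graded scale.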
# bulrush [27] = assay: as above; details: treatment during the vegetation period under submerged conditions; dose 2.52 g/a
# Method in brief: as §4
# barnyardgrass [28] = assay: as above; details: treatment during the vegetation period under submerged conditions; dose 2.52 g/a
# Method in brief: as §4
# [29] = three weeks after the application
compound,measurement,setting,value
CCC(=O)N(c1ccccc1CN1COC(C)(CC)CC1=O)S(=O)(=O)C(F)(F)F (stereo not drawn) [II-41],"J: common ragweed, herbicidal effect (evaluation scale 0-5)",common ragweed [1],4 (mortality of at least 70% and less than 90%)
same,"K: redroot pigweed, herbicidal effect (evaluation scale 0-5)",redroot pigweed [2],2 (mortality of at least 20% and less than 40%)
same,"G: water foxtail, herbicidal effect (evaluation scale 0-5)",water foxtail [3],5 (mortality of 90% or above (nearly complete death))
same,"I: velvetleaf, herbicidal effect (evaluation scale 0-5)",velvetleaf [4],5 (mortality of 90% or above (nearly complete death))
same,"L: common lambsquater, herbicidal effect (evaluation scale 0-5)",common lambsquater [5],3 (mortality of at least 40% and less than 70%)
same,"D: large crabgrass, herbicidal effect (evaluation scale 0-5)",large crabgrass [6],4 (mortality of at least 70% and less than 90%)
same,"H: Italian ryegrass, herbicidal effect (evaluation scale 0-5)",Italian ryegrass [7],5 (mortality of 90% or above (nearly complete death))
same,"M: posumbu knotweed, herbicidal effect (evaluation scale 0-5)",posumbu knotweed [8],4 (mortality of at least 70% and less than 90%)
same,"E: giant foxtail, herbicidal effect (evaluation scale 0-5)",giant foxtail [9],4 (mortality of at least 70% and less than 90%)
same,"N: common chickweed, herbicidal effect (evaluation scale 0-5)",common chickweed [10],5 (mortality of 90% or above (nearly complete death))
same,"A: barnyardgrass, herbicidal effect (evaluation scale 0-5)",barnyardgrass [11],5 (mortality of 90% or above (nearly complete death))
same,"a: transplanted rice, effect on crop (evaluation scale 0-5)",transplanted rice,0 (mortality of less than 5% (almost ineffective))
same,"O: beadstraw, herbicidal effect",beadstraw; three weeks after application,4 (mortality of at least 70% and less than 90%)
same,"J: common ragweed, herbicidal effect",common ragweed [12]; three weeks after application,3 (mortality of at least 40% and less than 70%)
same,"K: redroot pigweed, herbicidal effect",redroot pigweed [13]; three weeks after application,0 (mortality of less than 5% (almost ineffective))
same,"G: water foxtail, herbicidal effect",water foxtail [14]; three weeks after application,5 (mortality of 90% or above (nearly complete death))
same,"I: velvetleaf, herbicidal effect",velvetleaf [15]; three weeks after application,5 (mortality of 90% or above (nearly complete death))
same,"L: common lambsquater, herbicidal effect",common lambsquater [16]; three weeks after application,2 (mortality of at least 20% and less than 40%)
same,"D: large crabgrass, herbicidal effect",large crabgrass [17]; three weeks after application,1 (mortality of at least 5% and less than 20%)
same,"H: Italian ryegrass, herbicidal effect",Italian ryegrass [18]; three weeks after application,4 (mortality of at least 70% and less than 90%)
same,"M: posumbu knotweed, herbicidal effect",posumbu knotweed [19]; three weeks after application,0 (mortality of less than 5% (almost ineffective))
same,"E: giant foxtail, herbicidal effect",giant foxtail [20]; three weeks after application,4 (mortality of at least 70% and less than 90%)
same,"N: common chickweed, herbicidal effect",common chickweed [21]; three weeks after application,3 (mortality of at least 40% and less than 70%)
same,"A: barnyardgrass, herbicidal effect",barnyardgrass [22]; three weeks after application,5 (mortality of 90% or above (nearly complete death))
same,"C: ducksalad, herbicidal effect (evaluation scale 0-5)",ducksalad [23],5 (mortality of 90% or above (nearly complete death))
same,"B: bulrush, herbicidal effect (evaluation scale 0-5)",bulrush [24],5 (mortality of 90% or above (nearly complete death))
same,"A: barnyardgrass, herbicidal effect (evaluation scale 0-5)",barnyardgrass [25],5 (mortality of 90% or above (nearly complete death))
same,"C: ducksalad, herbicidal effect (evaluation scale 0-5)",ducksalad [26],5 (mortality of 90% or above (nearly complete death))
same,"B: bulrush, herbicidal effect (evaluation scale 0-5)",bulrush [27],5 (mortality of 90% or above (nearly complete death))
same,"A: barnyardgrass, herbicidal effect (evaluation scale 0-5)",barnyardgrass [28],5 (mortality of 90% or above (nearly complete death))
CCC1CON(Cc2ccccc2N(C(=O)OCCCl)S(=O)(=O)C(F)(F)F)C(=O)O1 (stereo not drawn) [III-7],"herbicidal effect, J: common ragweed",common ragweed [1],4 (mortality of at least 70% and less than 90%)
same,"herbicidal effect, K: redroot pigweed",redroot pigweed [2],1 (mortality of at least 5% and less than 20%)
same,"herbicidal effect, G: water foxtail",water foxtail [3],5 (mortality of 90% or above (nearly complete death))
same,"herbicidal effect, I: velvetleaf",velvetleaf [4],0 (mortality of less than 5% (almost ineffective))
same,"herbicidal effect, L: common lambsquater",common lambsquater [5],4 (mortality of at least 70% and less than 90%)
same,"herbicidal effect, D: large crabgrass",large crabgrass [6],5 (mortality of 90% or above (nearly complete death))
same,"herbicidal effect, H: Italian ryegrass",Italian ryegrass [7],4 (mortality of at least 70% and less than 90%)
same,"herbicidal effect, M: posumbu knotweed",posumbu knotweed [8],4 (mortality of at least 70% and less than 90%)
same,"herbicidal effect, E: giant foxtail",giant foxtail [9],5 (mortality of 90% or above (nearly complete death))
same,"herbicidal effect, N: common chickweed",common chickweed [10],5 (mortality of 90% or above (nearly complete death))
same,"herbicidal effect, A: barnyardgrass",barnyardgrass [11],5 (mortality of 90% or above (nearly complete death))
same,"a: transplanted rice, effect on crop (evaluation scale 0-5)",transplanted rice,0 (mortality of less than 5% (almost ineffective))
same,"O: beadstraw, herbicidal effect",beadstraw; [29],2 (mortality of at least 20% and less than 40%)
same,"J: common ragweed, herbicidal effect",common ragweed [12]; [29],4 (mortality of at least 70% and less than 90%)
same,"K: redroot pigweed, herbicidal effect",redroot pigweed [13]; [29],3 (mortality of at least 40% and less than 70%)
same,"G: water foxtail, herbicidal effect",water foxtail [14]; [29],5 (mortality of 90% or above (nearly complete death))
same,"I: velvetleaf, herbicidal effect",velvetleaf [15]; [29],0 (mortality of less than 5% (almost ineffective))
same,"L: common lambsquater, herbicidal effect",common lambsquater [16]; [29],4 (mortality of at least 70% and less than 90%)
same,"D: large crabgrass, herbicidal effect",large crabgrass [17]; [29],3 (mortality of at least 40% and less than 70%)
same,"H: Italian ryegrass, herbicidal effect",Italian ryegrass [18]; [29],0 (mortality of less than 5% (almost ineffective))
same,"M: posumbu knotweed, herbicidal effect",posumbu knotweed [19]; [29],0 (mortality of less than 5% (almost ineffective))
same,"E: giant foxtail, herbicidal effect",giant foxtail [20]; [29],3 (mortality of at least 40% and less than 70%)
same,"N: common chickweed, herbicidal effect",common chickweed [21]; [29],3 (mortality of at least 40% and less than 70%)
same,"A: barnyardgrass, herbicidal effect",barnyardgrass [22]; [29],5 (mortality of 90% or above (nearly complete death))
same,"C: ducksalad, herbicidal effect (evaluation scale 0-5)",ducksalad [23],5 (mortality of 90% or above (nearly complete death))
same,"B: bulrush, herbicidal effect (evaluation scale 0-5)",bulrush [24],5 (mortality of 90% or above (nearly complete death))
same,"A: barnyardgrass, herbicidal effect (evaluation scale 0-5)",barnyardgrass [25],5 (mortality of 90% or above (nearly complete death))
same,"C: ducksalad, herbicidal effect (evaluation scale 0-5)",ducksalad [26],5 (mortality of 90% or above (nearly complete death))
same,"B: bulrush, herbicidal effect (evaluation scale 0-5)",bulrush [27],5 (mortality of 90% or above (nearly complete death))
same,"A: barnyardgrass, herbicidal effect (evaluation scale 0-5)",barnyardgrass [28],5 (mortality of 90% or above (nearly complete death))
